Reference: patent publication US20190343953A1, “ANTI-CANCER TREATMENTS WITH AN ANTI-MUC1 ANTIBODY AND AN ERBB INHIBITOR” (Glycotope GmbH, priority 2017, published 2019)

Test system: cancer cells
Assay: Cytotoxicity assay of SeeloMab (PankoMab-ADC), statements for the cancer cells in general
Type: cell-based, human
Details: pretreated for 3 days vs non-pretreated
Protocol: The cytotoxic potential of a TA-MUC1 targeting antibody drug conjugate (ADC) was investigated using SeeloMab, the ADC format of PankoMab with a microtubule inhibitor as toxin. Therefore, cells were pre-incubated for 3 days with an optimum concentration of EGFR inhibitor. […] After 3 days the antigen expression was confirmed by flow cytometry and cells were seeded at equal cell density (5000 cells/well) into the wells of a microtiter plate. Cells were incubated with different concentrations of SeeloMab, an isotype matched control ADC and unconjugated PankoMab served as negative control. After 4 days viability of the cells was measured using Celltiter-Glo Luminescent Cell Viability Assay (Promega) and percent proliferation was calculated relative to medium control.

## C#Cc1cccc(Nc2ncnc3cc(OCCOC)c(OCCOC)cc23)c1 [Erlotinib]
  reduction of proliferation by anti-TA-MUC1 ADC when cancer cells were pretreated with EGFR inhibitor: significantly stronger
